Experimental data reported in PubChem BioAssay AID1959 (Broad Institute, 2009).
The source made the active and inactive calls.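 The calls were made as follows: active = growth-inhibition EC50 no more than tenfold above the top tested dose; inconclusive = flat fit between 30% and 70% inhibition, or unreliable fit; inactive = EC50 more than tenfold above the top tested dose.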

Test system: E. coli NEB5alpha growth, BacTiter-Glo luminescence, 4 h
Experiment: antibacterial activity against E. coli NEB5alpha – luminescence, counter-screen for MEX-5/POS-1 RNA-binding inhibitor project, dose response (AID 1959);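 also: pUC19-transformed ampicillin-resistant cells grown in LB with ampicillin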

SMILES | EC50
COc1cccc(/C=N/NC(=O)c2ccc(=O)[nH]n2)c1O | > 11 µM (inactive)
Cc1ccc(N2C(=O)NC(=O)/C(=C\c3cc(C)n(-c4cc(C(=O)O)cc(C(=O)O)c4)c3C)C2=O)cc1 | > 11 µM (inactive)
NC1=CC(=O)c2cccc3cccc1c23 | > 11 µM (inactive)
Cc1[nH][nH]c(=O)c1/C=N/N1CCOCC1 | > 11 µM (inactive)
Cn1cc(/C=N/n2cnc3scc(-c4ccc(Cl)cc4)c3c2=O)c2ccccc21 | > 11 µM (inactive)
CC(C)C1Nc2c(O)cc(Cl)c([N+](=O)[O-])c2C2C=CCC21 (stereo not given) | > 11 µM (inactive)
CN1C(=O)/C(=C\c2ccc(N(C)C)cc2)OC1=S | > 11 µM (inactive)
CSc1sccc1/C=C(/C#N)C(=O)c1ccco1 | > 11 µM (inactive)
O=C1N=C(N2C=CC(=C3C=CNC=C3)C=C2)/C(=C/N=NC(=O)c2ccccc2O)S1 | > 11 µM (inactive)
Cc1nc(S/C(=C/c2ccc(-c3cccc(Cl)c3)o2)C(=O)O)n[nH]1 | > 11 µM (inactive)
CC1(C)CC(=O)C2=C(C1)OC(N)=C(C#N)[C@@H]2c1ccccc1[N+](=O)[O-] | > 11 µM (inactive)
COC(=O)c1c(C(=O)OC)c2n(c1C)Cc1ccccc1C2 | > 11 µM (inactive)
COCCCNC(CC(=O)Nc1cc(C)cc(C)c1)C(=O)O (stereo not given) | > 11 µM (inactive)
Cc1[nH][nH]c(=O)c1C(c1cc([N+](=O)[O-])ccc1O)c1c(C)[nH][nH]c1=O | > 11 µM (inactive)
NC(CO)C(=O)NNCc1ccc(O)c(O)c1O (stereo not given) | > 11 µM (inactive)
COc1ccccc1N1C(=O)NC(=O)/C(=C/c2ccc([N+](=O)[O-])s2)C1=O | > 11 µM (inactive)
CC(C)(C)OC(=O)NCCCCC1=CC2=CC(=O)C(C)(OC(=O)c3ccco3)C(=O)C2=CO1 (stereo not given) | > 11 µM (inactive)
O=C(O)c1ccccc1-c1ccc(C=C2C(=O)N(c3ccccc3)C(=S)N(c3ccccc3)C2=O)o1 | > 11 µM (inactive)
CCC(C)(C)NC(=O)C(c1cccn1C)N(C(=O)Cn1nnc2ccccc21)c1ccc(OC)cc1 (stereo not given) | > 11 µM (inactive)
Cc1cc(/C=C2\C(=O)NC(=O)N(C)C2=O)c(C)n1-c1ccc2c(c1)OCO2 | > 11 µM (inactive)
CC(C)(C)OC(=O)N1CC=C2C(C#N)=C(N)C(C#N)(C#N)[C@H](c3cccnc3)[C@H]2C1 | > 11 µM (inactive)
CCN1C(=O)/C(=C2/C=Cc3ccccc3N2C)OC1=S | > 11 µM (inactive)
CN1C(=O)C(=Cc2ccccc2OS(=O)(=O)c2ccccc2)C(=O)N(C)C1=O | > 11 µM (inactive)
Cc1ccc2cc(/C=C3\N=C(c4ccccc4)OC3=O)c(N3CCOCC3)nc2c1 | > 11 µM (inactive)

SMILES | EC50
CCCCOc1ccc(/C=C2/Sc3ccccc3C2=O)cc1 | > 11 µM (inactive)
CN(C)c1ccc(/C=N/N(CCC(=O)NC(C)(C)C)C2=NS(=O)(=O)c3ccccc32)cc1 | > 11 µM (inactive)
CCCn1cc2c3c(cccc31)C1CC(C)CN(C)C1C2 (stereo not given) | > 11 µM (inactive)
CN(C)c1cc(-c2ccc([N+](=O)[O-])cc2)oc(=O)c1Cl | > 11 µM (inactive)
Cc1cc(NS(=O)(=O)c2ccc(Nc3nc(-c4sc(N)nc4C)cs3)cc2)no1 | > 11 µM (inactive)
CCCn1c(=N)c(C(=O)NCC2CCCO2)cc2c(=O)n3cccc(C)c3nc21 (stereo not given) | > 11 µM (inactive)
COCCNC(=O)CCC(=O)NNc1nc2ccccc2c2nc(C)nn12 | > 11 µM (inactive)
COC(=O)c1ccc(COc2ccc(/C=C(\C#N)c3nc4ccccc4[nH]3)cc2OC)o1 | > 11 µM (inactive)
Cc1cc(C(=O)N/N=C/c2ccc(-c3cccc(Cl)c3Cl)o2)n[nH]1 | > 11 µM (inactive)
CC1=C(C#N)C(=O)OC(C)(C)C1 | > 11 µM (inactive)
Cc1ccc2cc(/C=C(\C#N)C(N)=O)c(N3CCCCC3)nc2c1 | > 11 µM (inactive)
COc1ccc(N2C(=O)/C(=C/c3ccco3)C(=O)NC2=S)cc1 | > 11 µM (inactive)
COc1cc(S(=O)(=O)Nc2ccc(C)cc2)ccc1N=Cc1c(C)c(C#N)c(=O)n(C)c1O | > 11 µM (inactive)
Cn1ncc2c(NNC(=O)c3ccc(O)cc3)ncnc21 | > 11 µM (inactive)
C=CCN1C(=O)NC(=O)/C(=C/c2ccc(OC)c(CSc3ccccn3)c2)C1=O | > 11 µM (inactive)
CC1(OC(=O)c2cccs2)C(=O)C=C2C=C3CCCN3C=C2C1=O (stereo not given) | > 11 µM (inactive)
Cc1cc(/C=C2\C(=O)NC(=O)N(c3ccccc3F)C2=O)c(C)n1-c1cc(C(=O)O)cc(C(=O)O)c1 | > 11 µM (inactive)
Nc1nnc2c(n1)CCCC2 | > 11 µM (inactive)
COc1cc2c3nnc(-c4ccc(F)cc4)c-3cn(Cc3ccc(C)cc3)c2cc1OC | > 11 µM (inactive)
COc1ccc(NC(=O)Nc2cc(C)cc(C)c2)cn1 | > 11 µM (inactive)
O=C(OCCc1ccccc1)c1cc(O)c(O)c(O)c1 | > 11 µM (inactive)
Cc1nnc(N2C(=O)C(O)=C(C(=O)c3ccco3)C2c2ccc(C(C)(C)C)cc2)s1 (stereo not given) | > 11 µM (inactive)
COc1ccccc1N1C(=O)C2C(C(=O)c3ccccc3)=NN(c3ccc(C)cc3)C2C1=O (stereo not given) | > 11 µM (inactive)
O=C(c1ccco1)[C@@H]1[C@@H]2C(=O)N(c3ccccc3)C(=O)[C@@H]2C2c3ccccc3C=CN21 (stereo not given in full) | > 11 µM (inactive)

SMILES | EC50
CSc1nc(=S)c2[nH]c(=S)[nH]c2[nH]1 | > 11 µM (inactive)
CN1C(=O)/C(=C/c2ccc(-c3ccccc3[N+](=O)[O-])o2)SC1=Nc1ccc(Cl)c(C(=O)O)c1 | > 11 µM (inactive)
O=C1C2=C(SCCS2)C(=O)N1c1ccccc1 | > 11 µM (inactive)
O=C(/C=C/c1c(Cl)cccc1Cl)N1CCOCC1 | > 11 µM (inactive)
Cc1ccc(CN2C(=O)N/C(=C\c3cccn3-c3cccc(C(=O)O)c3)C2=O)cc1 | > 11 µM (inactive)
Cc1ccc(S(=O)(=O)N2CCOCC2)cc1NC(=O)CN(C)C1CCS(=O)(=O)C1 (stereo not given) | > 11 µM (inactive)
O=c1oc2ccccc2cc1-c1nc(-c2cccs2)cs1 | > 11 µM (inactive)
Nc1ccc2c(c1)-c1ccccc1S(=O)(=O)N2 | > 11 µM (inactive)
CC(C)(C)c1nn(-c2ccccc2)c2[nH]c(=O)c(CNCc3ccco3)cc12 | > 11 µM (inactive)
COc1ccc(N2C(=O)NC(=O)/C(=C/c3ccc([N+](=O)[O-])s3)C2=O)cc1 | > 11 µM (inactive)
O=C1c2ccccc2C(=O)C1c1ccc2ccccc2n1 | > 11 µM (inactive)
Cc1cc(C)c2c(c1)NC(c1cc3c(cc1Br)OCO3)C1CC=CC21 (stereo not given) | > 11 µM (inactive)
CN(C)c1ccnc(Oc2ccc(Cl)cc2)c1C#N | > 11 µM (inactive)
Cc1cc(C)nc(NN2C(=O)C=CC2=O)n1 | > 11 µM (inactive)
Cc1sc(-c2ccccn2)nc1OC(=O)c1cccc(Cl)c1Cl | > 11 µM (inactive)
N#Cc1c(C#N)c(-c2ccccc2)n(-c2ccc(C(=O)O)cc2)c1N | > 11 µM (inactive)
CCn1cc(C=C2C(=O)N(C)C(=O)N(C)C2=O)c2ccccc21 | > 11 µM (inactive)
O=C(NCCO)c1ccc2nc(-c3ccco3)c(-c3ccco3)nc2c1 | > 11 µM (inactive)
CCCCN(C)C(=O)CCC(=O)NNc1nc2ccccc2c2nc(C)nn12 | > 11 µM (inactive)
CCNC(=O)c1cc2c(=O)n3cccc(C)c3nc2n(Cc2ccc(C)cc2)c1=N | > 11 µM (inactive)
O=C1NC(=O)[C@@H]2C3c4ccccc4C=CN3[C@H](C(=O)c3cccs3)[C@H]12 (stereo not given in full) | > 11 µM (inactive)
COC(=O)CNC(=O)C1Nc2ccccc2C2C=CCC12 (stereo not given) | > 11 µM (inactive)
CC(C)N1CCc2c(sc(NC(=O)c3ccc4ccccc4c3)c2C(N)=O)C1 | > 11 µM (inactive)
COc1ccc(C(=O)/C=C/Nc2ccc([N+](=O)[O-])cc2C)c(OC)c1 | > 11 µM (inactive)

SMILES | EC50
CCN1CCN(Cc2c(O)ccc3c2O/C(=C\c2ccccc2)C3=O)CC1 | > 11 µM (inactive)
Cn1cccc1/C=C1\C(=O)NC(=O)N(Cc2ccco2)C1=O | > 11 µM (inactive)
N#CC1=C(N)OC2=C(C(=O)CCC2)C1c1cc2c(cc1Br)OCO2 (stereo not given) | > 11 µM (inactive)
COc1cc2c(cc1/C=C1/NC(=O)N(c3ccccc3)C1=O)OCO2 | > 11 µM (inactive)
CC1(OC(=O)c2ccco2)C(=O)C=C2C=C(c3ccsc3)OC=C2C1=O (stereo not given) | > 11 µM (inactive)
N=c1c(C(=O)NC2CCCC2)cc2c(=O)n3ccccc3nc2n1Cc1ccccc1 | > 11 µM (inactive)
Cn1c(=O)[nH]c2cc(Cl)cnc21 | > 11 µM (inactive)
CCCN1CCc2cc(O)cc3c2[C@H]1Cc1ccc(O)c(O)c1-3 | > 11 µM (inactive)
Nc1c(C(=O)c2ccc(Br)s2)oc2ccccc12 | > 11 µM (inactive)
COC(=O)c1cccc(-n2c(CCC(=O)O)ccc2-c2cccs2)c1 | > 11 µM (inactive)
Cn1c(=O)c2[nH]c(N/N=C(/C#N)C(N)=O)nc2n(C)c1=O | > 11 µM (inactive)
Cc1ccc(/C=C2\C(=O)NC(=O)N(CC3CCCO3)C2=O)s1 (stereo not given) | > 11 µM (inactive)
Cc1cccc2sc(NNC(=O)c3cc(=O)c4ccccc4o3)nc12 | > 11 µM (inactive)
N#CC1=C(N)OC2=C(C(=O)CCC2)C1c1ccc(OC(=O)N2CCOCC2)cc1 (stereo not given) | > 11 µM (inactive)
COc1ccc(N2C(=O)C(Cl)=C(Nc3ccccc3O)C2=O)cc1 | > 11 µM (inactive)
COc1cc(C2C(C#N)=C(N)OC3=C2C(=O)CC(C)(C)C3)c([N+](=O)[O-])cc1OC (stereo not given) | > 11 µM (inactive)
CSCC(C)N1CCC(n2nccc2NC(=O)CCCc2ccccc2)CC1 (stereo not given) | > 11 µM (inactive)
Cc1cc(/C=N/n2cnnc2)c(C)n1-c1cccc(C(=O)O)c1 | > 11 µM (inactive)
Cc1cc(=O)oc2c(CN3CCC(C)CC3)c(O)c(Cl)cc12 | > 11 µM (inactive)
CCOC(=O)c1cc(-c2ccc(/C=C3/C(=O)NC(=O)C(C#N)=C3C)o2)ccc1Cl | > 11 µM (inactive)
COC1(OC)N=C(N)C2(C#N)C(c3ccc4c(c3)OCO4)C12C#N (stereo not given) | > 11 µM (inactive)
CCOC(=O)c1cnc(-n2nc(C)cc2C)nc1NNc1nc(C)cc(C)n1 | > 11 µM (inactive)
O=[N+]([O-])c1ccc(Nc2ccccc2O)c2nonc12 | > 11 µM (inactive)
